According to article PMC3700073, “Synthesis and Biological Activity of New Thiopyrano[2,3-d]thiazoles Containing a Naphthoquinone Moiety” (Scientia Pharmaceutica, 2013):
Like-named read-outs stand apart in the source and are kept apart here.

Tests used:
SF-539 (CNS cancer) = experiment: NCI five-dose assay; assay type: cell-based; settings: Homo sapiens, SF-539, SF-539, CNS cancer
[1] = tested on: MDA-MB-231/ATCC (breast cancer); experiment: NCI five-dose assay; assay type: cell-based; settings: Homo sapiens, MDA-MB-231, MDA-MB-231/ATCC
SK-MEL-2 (melanoma) = experiment: NCI five-dose assay; assay type: cell-based; settings: Homo sapiens, SK-MEL-2, SK-MEL-2, melanoma
DU-145 (prostate cancer) = experiment: NCI five-dose assay; assay type: cell-based; settings: Homo sapiens, DU-145, DU-145, prostate cancer
LOX IMVI (melanoma) = experiment: NCI five-dose assay; assay type: cell-based; settings: Homo sapiens
SN12C (renal cancer) = experiment: NCI five-dose assay; assay type: cell-based; settings: Homo sapiens
T-47D (breast cancer) = experiment: NCI five-dose assay; assay type: cell-based; settings: Homo sapiens, T47D
OVCAR-4 (ovarian cancer) = experiment: NCI five-dose assay; assay type: cell-based; settings: Homo sapiens, OVCAR-4, OVCAR-4, ovarian cancer
NCI-H522 (NSCL cancer) = experiment: NCI five-dose assay; assay type: cell-based; settings: Homo sapiens
MOLT-4 (leukemia) = experiment: NCI five-dose assay; assay type: cell-based; settings: Homo sapiens, MOLT-4, MOLT-4, leukemia
A549/ATCC (NSCL cancer) = experiment: NCI five-dose assay; assay type: cell-based; settings: Homo sapiens
NCI-H23 (NSCL cancer) = experiment: NCI five-dose assay; assay type: cell-based; settings: Homo sapiens
60 cancer cell lines [2] = settings: over the cell line panel
60 cancer cell lines [3] = experiment: cells; settings: Homo sapiens
BT-549 (breast cancer) = experiment: NCI five-dose assay; assay type: cell-based; settings: Homo sapiens, BT-549, BT-549, breast cancer
HL-60(TB) (leukemia) = experiment: NCI five-dose assay; assay type: cell-based; settings: Homo sapiens, HL-60, HL-60(TB)
M14 (melanoma) = experiment: NCI five-dose assay; assay type: cell-based; settings: Homo sapiens
SK-MEL-28 (melanoma) = experiment: NCI five-dose assay; assay type: cell-based; settings: Homo sapiens, SK-MEL-28, SK-MEL-28, melanoma
U251 (CNS cancer) = experiment: NCI five-dose assay; assay type: cell-based; settings: Homo sapiens, U-251, U251, CNS cancer
HOP-92 (NSCL cancer) = experiment: NCI five-dose assay; assay type: cell-based; settings: Homo sapiens, HOP-92, HOP-92, NSCL cancer
ACHN (renal cancer) = experiment: NCI five-dose assay; assay type: cell-based; settings: Homo sapiens
K-562 (leukemia) = experiment: NCI five-dose assay; assay type: cell-based; settings: Homo sapiens, K562, K-562, leukemia
RPMI-8226 (leukemia) = experiment: NCI five-dose assay; assay type: cell-based; settings: Homo sapiens, RPMI-8226, RPMI-8226, leukemia
OVCAR-8 (ovarian cancer) = experiment: NCI five-dose assay; assay type: cell-based; settings: Homo sapiens, OVCAR-8, OVCAR-8, ovarian cancer
SNB-75 (CNS cancer) = experiment: NCI five-dose assay; assay type: cell-based; settings: Homo sapiens, SNB-75, SNB-75, CNS cancer
PC-3 (prostate cancer) = experiment: NCI five-dose assay; assay type: cell-based; settings: Homo sapiens
HCT-116 (colon cancer) = experiment: NCI five-dose assay; assay type: cell-based; settings: Homo sapiens, HCT-116, HCT-116, colon cancer
[4] = tested on: NCI/ADR-RES (breast cancer); experiment: NCI five-dose assay; assay type: cell-based; settings: Homo sapiens
EKVX (NSCL cancer) = experiment: NCI five-dose assay; assay type: cell-based; settings: Homo sapiens
IGROV-1 (ovarian cancer) = experiment: NCI five-dose assay; assay type: cell-based; settings: Homo sapiens
[5] = tested on: MDA-MB-435 (breast cancer); experiment: NCI five-dose assay; assay type: cell-based; settings: Homo sapiens, MDA-MB-435, MDA-MB-435, breast cancer
SF-268 (CNS cancer) = experiment: NCI five-dose assay; assay type: cell-based; settings: Homo sapiens, SF-268, SF-268, CNS cancer
SW-620 (colon cancer) = experiment: NCI five-dose assay; assay type: cell-based; settings: Homo sapiens, SW-620, SW-620, colon cancer
HCT-15 (colon cancer) = experiment: NCI five-dose assay; assay type: cell-based; settings: Homo sapiens, HCT-15, HCT-15, colon cancer
SF-295 (CNS cancer) = experiment: NCI five-dose assay; assay type: cell-based; settings: Homo sapiens, SF-295, SF-295, CNS cancer
A498 (renal cancer) = experiment: NCI five-dose assay; assay type: cell-based; settings: Homo sapiens
[6] = read-out: GI50 MG_MID, over the cell line panel
[7] = read-out: GI50 Range (min – max), over the cell line panel
[8] = read-out: LC50 MG_MID, over the cell line panel
[9] = read-out: LC50 Range (min – max), over the cell line panel

## COc1cc(C2C3=C(Sc4[nH]c(=O)sc42)C(=O)c2ccccc2C3=O)ccc1O (stereo not drawn) [Compound 4i, 11-(4-Hydroxy-3-methoxyphenyl)-3,11-dihydro-2H-benzo[6,7]thiochromeno[2,3-d]-[1,3]thiazole-2,5,10-trione]
SF-539 (CNS cancer)
  GI50: 3260 nM
SF-539 (CNS cancer); repeated testing
  GI50: 3460 nM
[1]
  GI50: 860 nM
[1]; repeated testing
  GI50: 1980 nM
SK-MEL-2 (melanoma)
  GI50: 2210 nM
SK-MEL-2 (melanoma); repeated testing
  GI50: 980 nM
DU-145 (prostate cancer)
  GI50: 510 nM
DU-145 (prostate cancer); repeated testing
  GI50: 930 nM
LOX IMVI (melanoma)
  GI50: 160 nM
LOX IMVI (melanoma); repeated testing
  GI50: 250 nM
SN12C (renal cancer); repeated testing
  GI50: 3020 nM
T-47D (breast cancer)
  GI50: 2560 nM
OVCAR-4 (ovarian cancer)
  GI50: 2190 nM
OVCAR-4 (ovarian cancer); repeated testing
  GI50: 1330 nM
NCI-H522 (NSCL cancer)
  GI50: 1960 nM
NCI-H522 (NSCL cancer); repeated testing
  GI50: 2120 nM
MOLT-4 (leukemia)
  GI50: 2770 nM
MOLT-4 (leukemia); repeated testing
  GI50: 3670 nM
A549/ATCC (NSCL cancer)
  GI50: 1340 nM
A549/ATCC (NSCL cancer); repeated testing
  GI50: 650 nM
NCI-H23 (NSCL cancer)
  GI50: 950 nM
NCI-H23 (NSCL cancer); repeated testing
  GI50: 410 nM
60 cancer cell lines [2]
  TGI MG_MID: 10960 nM
60 cancer cell lines [2]; repeated testing
  TGI MG_MID: (8.51) μM
60 cancer cell lines [3]; [6]
  GI50: 1950 nM
60 cancer cell lines [3]; read-out: GI50 MG_MID, over the cell line panel, repeated testing
  GI50: 1700 nM
60 cancer cell lines [3]; [7]
  GI50: 160 to 41400 nM
60 cancer cell lines [3]; read-out: GI50 Range (min – max), over the cell line panel, repeated testing
  GI50: 220 to 5720 nM
60 cancer cell lines [3]; [8]
  CC50: 42700 nM
60 cancer cell lines [3]; read-out: LC50 MG_MID, over the cell line panel, repeated testing
  CC50: 38000 nM
60 cancer cell lines [3]; [9]
  CC50: 4140 to 92400 nM
60 cancer cell lines [3]; read-out: LC50 Range (min – max), over the cell line panel, repeated testing
  CC50: 4930 to 86600 nM
BT-549 (breast cancer)
  GI50: 2740 nM
BT-549 (breast cancer); repeated testing
  GI50: 920 nM
HL-60(TB) (leukemia)
  GI50: 2010 nM
HL-60(TB) (leukemia); repeated testing
  GI50: 1260 nM
M14 (melanoma)
  GI50: 1250 nM
M14 (melanoma); repeated testing
  GI50: 1220 nM
SK-MEL-28 (melanoma)
  GI50: 1790 nM
SK-MEL-28 (melanoma); repeated testing
  GI50: 1410 nM
U251 (CNS cancer)
  GI50: 1630 nM
U251 (CNS cancer); repeated testing
  GI50: 2210 nM
HOP-92 (NSCL cancer)
  GI50: 1440 nM
HOP-92 (NSCL cancer); repeated testing
  GI50: 2150 nM
ACHN (renal cancer)
  GI50: 2950 nM
ACHN (renal cancer); repeated testing
  GI50: 1660 nM
K-562 (leukemia); repeated testing
  GI50: 1980 nM
K-562 (leukemia); result printed as symbol
  GI50: > 100000 nM
RPMI-8226 (leukemia)
  GI50: 1930 nM
RPMI-8226 (leukemia); repeated testing
  GI50: 1330 nM
OVCAR-8 (ovarian cancer)
  GI50: 2850 nM
OVCAR-8 (ovarian cancer); repeated testing
  GI50: 2050 nM
SNB-75 (CNS cancer)
  GI50: 1260 nM
SNB-75 (CNS cancer); repeated testing
  GI50: 670 nM
PC-3 (prostate cancer)
  GI50: 1980 nM
PC-3 (prostate cancer); repeated testing
  GI50: 2570 nM
HCT-116 (colon cancer)
  GI50: 3360 nM
HCT-116 (colon cancer); repeated testing
  GI50: 2460 nM
[4]
  GI50: 8390 nM
[4]; repeated testing
  GI50: 4500 nM
EKVX (NSCL cancer)
  GI50: 3240 nM
EKVX (NSCL cancer); repeated testing
  GI50: 4030 nM
IGROV-1 (ovarian cancer)
  GI50: 2480 nM
[5]
  GI50: 1380 nM
[5]; repeated testing
  GI50: 1480 nM
SF-268 (CNS cancer)
  GI50: 2530 nM
SF-268 (CNS cancer); repeated testing
  GI50: 3300 nM
SW-620 (colon cancer)
  GI50: 2820 nM
SW-620 (colon cancer); repeated testing
  GI50: 3230 nM
HCT-15 (colon cancer)
  GI50: 2070 nM
HCT-15 (colon cancer); repeated testing
  GI50: 1740 nM
SF-295 (CNS cancer)
  GI50: 1710 nM
SF-295 (CNS cancer); repeated testing
  GI50: 1140 nM
A498 (renal cancer)
  GI50: 1950 nM
A498 (renal cancer); repeated testing
  GI50: 2110 nM

## COc1ccc(C2C3=C(Sc4[nH]c(=O)sc42)C(=O)c2ccccc2C3=O)cc1OC (stereo not drawn) [Compound 4f, 11-(3,4-Dimethoxyphenyl)-3,11-dihydro-2H-benzo[6,7]thiochromeno[2,3-d][1,3]thiazole-2,5,10-trione]
SF-539 (CNS cancer)
  GI50: 3170 nM
[1]
  GI50: 3130 nM
SK-MEL-2 (melanoma)
  GI50: 4190 nM
DU-145 (prostate cancer)
  GI50: 1680 nM
LOX IMVI (melanoma)
  GI50: 1260 nM
SN12C (renal cancer)
  GI50: 3680 nM
T-47D (breast cancer)
  GI50: 3420 nM
OVCAR-4 (ovarian cancer)
  GI50: 2480 nM
NCI-H522 (NSCL cancer)
  GI50: 7910 nM
MOLT-4 (leukemia)
  GI50: 3880 nM
A549/ATCC (NSCL cancer)
  GI50: 2350 nM
NCI-H23 (NSCL cancer)
  GI50: 1680 nM
60 cancer cell lines [2]
  TGI MG_MID: 14790 nM
60 cancer cell lines [3]; [6]
  GI50: 4190 nM
60 cancer cell lines [3]; [7]
  GI50: 1260 to 17700 nM
60 cancer cell lines [3]; [8]
  CC50: 47900 nM
60 cancer cell lines [3]; [9]
  CC50: 5340 to 93000 nM
BT-549 (breast cancer)
  GI50: 2840 nM
HL-60(TB) (leukemia)
  GI50: 1980 nM
M14 (melanoma)
  GI50: 2670 nM
SK-MEL-28 (melanoma)
  GI50: 6220 nM
U251 (CNS cancer)
  GI50: 4270 nM
HOP-92 (NSCL cancer)
  GI50: 5260 nM
ACHN (renal cancer)
  GI50: 9240 nM
K-562 (leukemia)
  GI50: 4970 nM
RPMI-8226 (leukemia)
  GI50: 4640 nM
OVCAR-8 (ovarian cancer)
  GI50: 4020 nM
SNB-75 (CNS cancer)
  GI50: 6640 nM
PC-3 (prostate cancer)
  GI50: 5410 nM
HCT-116 (colon cancer)
  GI50: 3470 nM
[4]
  GI50: 7070 nM
EKVX (NSCL cancer)
  GI50: 4970 nM
IGROV-1 (ovarian cancer)
  GI50: 3350 nM
[5]
  GI50: 2190 nM
SF-268 (CNS cancer)
  GI50: 4890 nM
SW-620 (colon cancer)
  GI50: 3960 nM
HCT-15 (colon cancer)
  GI50: 3510 nM
SF-295 (CNS cancer)
  GI50: 3770 nM
A498 (renal cancer)
  GI50: 4910 nM
